Results as given in patent publication US12723063B2, “GIPR-agonist compounds” (Eli Lilly and Company, priority 2019, dated 2026).
*1 amine or outer side, *2 acyl side, *3 side chain or, on linkers, in order; H or OH if unused. Where a SMILES comes first, the peptide text is derived from it. Side-chain parts run from the residue outwards. [ ]: non-standard residue; d: D form. The star is where a group is joined. C20 diacid = O=C(O)CCCCCCCCCCCCCCCCCCC(=O)*; C18 diacid = O=C(O)CCCCCCCCCCCCCCCCC(=O)*; αMePhe(2-F) = C[C@](N)(Cc1ccccc1F)C(=O)O; γGlu = O=C(O)[C@H](CCC(=O)[*:2])N[*:1]; 4Pal = N[C@@H](Cc1ccncc1)C(=O)O; αMeL = CC(C)C[C@](C)(N)C(=O)O; Orn = NCCC[C@H](N)C(=O)O; AEEA = NCCOCCOCC(=O)O; Aib = CC(C)(N)C(=O)O

Legend:
Assay in all cases: cAMP functional assay (HTRF) in HEK293 cells in presence of 0.1% casein
Format in all cases: cell-based
[1] = target: T1, human GLP-1 receptor (GLP-1R) (Homo sapiens, UniProt P43220); conditions: HEK293 cells expressing human GLP-1R, geometric mean, read-out: hGLP1R cAMP Rel EC50 nM (SEM, n)
T1 construct: expressed in transfected cells; host or cells: HEK293

[2] = target: T2, human glucagon receptor (GcgR) (Homo sapiens, UniProt P47871); conditions: HEK293 cells expressing human GcgR, geometric mean, read-out: hGcgR cAMP Rel EC50 nM (SEM, n)
T2 construct: expressed in transfected cells; host or cells: HEK293

[3] = target: T3, human glucose-dependent insulinotropic peptide receptor (GIPR) (Homo sapiens, UniProt P48546); conditions: HEK293 cells expressing human GIPR, geometric mean, read-out: hGIPR cAMP Rel EC50 nM (SEM, n)
T3 construct: expressed in transfected cells; host or cells: HEK293
T3 sequence (P48546 22-466): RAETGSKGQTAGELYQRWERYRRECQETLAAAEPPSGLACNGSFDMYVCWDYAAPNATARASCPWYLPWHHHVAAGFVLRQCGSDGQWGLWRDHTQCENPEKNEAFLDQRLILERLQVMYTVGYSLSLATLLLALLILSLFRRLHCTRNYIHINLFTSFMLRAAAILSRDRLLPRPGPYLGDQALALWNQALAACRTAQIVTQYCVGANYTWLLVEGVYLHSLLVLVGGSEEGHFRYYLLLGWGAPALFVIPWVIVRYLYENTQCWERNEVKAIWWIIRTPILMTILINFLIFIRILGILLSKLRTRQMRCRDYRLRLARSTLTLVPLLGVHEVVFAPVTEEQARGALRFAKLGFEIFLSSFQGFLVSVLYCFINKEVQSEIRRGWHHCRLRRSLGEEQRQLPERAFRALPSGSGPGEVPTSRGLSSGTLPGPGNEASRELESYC

T1 sequence (P43220 24-463): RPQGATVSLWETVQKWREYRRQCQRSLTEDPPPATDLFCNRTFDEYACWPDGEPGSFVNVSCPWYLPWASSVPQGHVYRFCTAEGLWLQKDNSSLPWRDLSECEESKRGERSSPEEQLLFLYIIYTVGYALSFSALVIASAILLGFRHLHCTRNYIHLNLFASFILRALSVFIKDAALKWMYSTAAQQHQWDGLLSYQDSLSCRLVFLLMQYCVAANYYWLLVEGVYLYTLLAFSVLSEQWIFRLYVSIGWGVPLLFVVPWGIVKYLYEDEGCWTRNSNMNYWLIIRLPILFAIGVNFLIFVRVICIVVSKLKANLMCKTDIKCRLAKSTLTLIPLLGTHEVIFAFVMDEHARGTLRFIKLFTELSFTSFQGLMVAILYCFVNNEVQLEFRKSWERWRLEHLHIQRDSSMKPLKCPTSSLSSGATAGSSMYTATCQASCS
T2 sequence (P47871 26-477): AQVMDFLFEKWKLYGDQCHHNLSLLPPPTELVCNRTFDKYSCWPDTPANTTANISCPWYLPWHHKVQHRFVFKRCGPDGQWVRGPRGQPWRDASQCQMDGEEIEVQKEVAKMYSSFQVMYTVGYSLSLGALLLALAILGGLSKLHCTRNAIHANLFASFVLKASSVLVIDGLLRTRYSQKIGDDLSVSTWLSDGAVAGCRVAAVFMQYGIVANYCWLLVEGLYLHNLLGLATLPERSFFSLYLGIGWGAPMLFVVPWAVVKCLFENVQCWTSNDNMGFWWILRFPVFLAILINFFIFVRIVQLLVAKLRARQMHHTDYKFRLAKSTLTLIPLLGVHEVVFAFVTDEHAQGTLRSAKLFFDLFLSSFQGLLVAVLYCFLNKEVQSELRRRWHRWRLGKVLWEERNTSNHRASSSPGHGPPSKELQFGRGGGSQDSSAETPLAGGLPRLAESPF

Compound | EC50 [1] [nM] | EC50 [2] [nM] | EC50 [3] [nM]
CC[C@H](C)[C@H](NC(=O)[C@H](CO)NC(=O)[C@H](Cc1ccc(O)cc1)NC(=O)[C@H](CC(=O)O)NC(=O)[C@H](CO)NC(=O)[C@@H](NC(=O)[C@](C)(Cc1ccccc1F)NC(=O)[C@@H](NC(=O)CNC(=O)[C@H](CCC(=O)O)NC(=O)C(C)(C)NC(=O)[C@@H](N)Cc1ccc(O)cc1)[C@@H](C)O)[C@@H](C)CC)C(=O)N[C@@H](C)C(=O)N[C@@H](CC(C)C)C(=O)N[C@@H](CC(=O)O)C(=O)N[C@@H](CCCCN)C(=O)N[C@H](C(=O)N[C@@H](Cc1c[nH]cn1)C(=O)N[C@@H](CCC(N)=O)C(=O)NC(C)(C)C(=O)N[C@@H](CCC(=O)O)C(=O)N[C@@H](Cc1ccccc1)C(=O)N[C@H](C(=O)N[C@@H](CC(N)=O)C(=O)N[C@@H](Cc1ccc(O)cc1)C(=O)N[C@@H](CCCCNC(=O)COCCOCCNC(=O)COCCOCCNC(=O)CC[C@H](NC(=O)CCCCCCCCCCCCCCCCCCC(=O)O)C(=O)O)C(=O)N[C@@H](CC(C)C)C(=O)N[C@@H](C)C(=O)NCC(=O)NCC(=O)N1CCC[C@H]1C(=O)N[C@@H](CO)C(=O)N[C@@H](CO)C(=O)NCC(=O)N[C@@H](C)C(=O)N1CCC[C@H]1C(=O)N1CCC[C@H]1C(=O)N1CCC[C@H]1C(=O)N[C@@H](CO)C(N)=O)C(C)C)[C@@H](C)CC [Example 98] (H-Y[Aib]EGT[αMePhe(2-F)]ISDYSIALDKIHQ[Aib]EFVNYK([AEEA-AEEA-γGlu-C20 diacid])LAGGPSSGAPPPS-NH2) | 649 | > 5000 | 0.00718
CC[C@H](C)[C@H](NC(=O)[C@H](CO)NC(=O)[C@H](Cc1ccc(O)cc1)NC(=O)[C@H](CC(=O)O)NC(=O)[C@H](CO)NC(=O)[C@@H](NC(=O)[C@H](Cc1ccccc1)NC(=O)[C@@H](NC(=O)CNC(=O)[C@H](CCC(=O)O)NC(=O)[C@@H](C)NC(=O)[C@@H](N)Cc1ccc(O)cc1)[C@@H](C)O)[C@@H](C)CC)C(=O)N[C@@H](CC(C)C)C(=O)N[C@@H](CC(C)C)C(=O)N[C@@H](CC(=O)O)C(=O)N[C@@H](CCCCN)C(=O)N[C@@H](CCCCNC(=O)COCCOCCNC(=O)COCCOCCNC(=O)CC[C@H](NC(=O)CCCCCCCCCCCCCCCCCCC(=O)O)C(=O)O)C(=O)N[C@@H](Cc1c[nH]cn1)C(=O)N[C@@H](CCC(N)=O)C(=O)N[C@@H](CCC(N)=O)C(=O)N[C@@H](CC(=O)O)C(=O)N[C@@H](Cc1ccccc1)C(=O)N[C@H](C(=O)N[C@@H](CC(N)=O)C(=O)N[C@@H](Cc1c[nH]c2ccccc12)C(=O)N[C@@H](CC(C)C)C(=O)N[C@@H](CC(C)C)C(=O)N[C@@H](C)C(=O)NCC(=O)NCC(=O)N1CCC[C@H]1C(=O)N[C@@H](CO)C(=O)N[C@@H](CO)C(=O)NCC(=O)N[C@@H](C)C(=O)N1CCC[C@H]1C(=O)N1CCC[C@H]1C(=O)N1CCC[C@H]1C(=O)N[C@@H](CO)C(N)=O)C(C)C [Example 10] (H-Y[dA]EGTFISDYSILLDKK([AEEA-AEEA-γGlu-C20 diacid])HQQDFVNWLLAGGPSSGAPPPS-NH2) | > 100 | > 5000 | 0.611
CC[C@H](C)[C@H](NC(=O)[C@H](Cc1ccccc1)NC(=O)[C@@H](NC(=O)CNC(=O)[C@H](CCC(=O)O)NC(=O)C(C)(C)NC(=O)[C@@H](N)Cc1ccc(O)cc1)[C@@H](C)O)C(=O)N[C@@H](CO)C(=O)N[C@@H](CC(=O)O)C(=O)N[C@@H](Cc1ccc(O)cc1)C(=O)N[C@@H](CO)C(=O)N[C@H](C(=O)N[C@@](C)(CC(C)C)C(=O)N[C@@H](CC(C)C)C(=O)N[C@@H](CC(=O)O)C(=O)N[C@@H](CCC(=O)O)C(=O)N[C@@H](CCCCNC(=O)COCCOCCNC(=O)COCCOCCNC(=O)CC[C@H](NC(=O)CCCCCCCCCCCCCCCCCCC(=O)O)C(=O)O)C(=O)N[C@@H](Cc1c[nH]cn1)C(=O)N[C@@H](CCC(N)=O)C(=O)NC(C)(C)C(=O)N[C@@H](CC(=O)O)C(=O)N[C@@H](Cc1ccccc1)C(=O)N[C@H](C(=O)N[C@@H](CCC(=O)O)C(=O)N[C@@H](Cc1ccncc1)C(=O)N[C@@H](CC(C)C)C(=O)N[C@@H](CC(C)C)C(=O)N[C@@H](C)C(=O)N[C@H](C(=O)NCC(=O)N1CCC[C@H]1C(=O)N[C@@H](CO)C(=O)N[C@@H](CO)C(=O)NCC(=O)N[C@@H](C)C(=O)N1CCC[C@H]1C(=O)N1CCC[C@H]1C(=O)N1CCC[C@H]1C(=O)N[C@@H](CO)C(N)=O)[C@@H](C)O)C(C)C)[C@@H](C)CC [Example 83] (H-Y[Aib]EGTFISDYSI[αMeL]LDEK([AEEA-AEEA-γGlu-C20 diacid])HQ[Aib]DFVE[4Pal]LLATGPSSGAPPPS-NH2) | > 5000 | > 5000 | 0.0432
CC[C@H](C)[C@H](NC(=O)[C@H](Cc1ccccc1)NC(=O)[C@@H](NC(=O)CNC(=O)[C@H](CCC(=O)O)NC(=O)C(C)(C)NC(=O)[C@@H](N)Cc1ccc(O)cc1)[C@@H](C)O)C(=O)N[C@@H](CO)C(=O)N[C@@H](CC(=O)O)C(=O)N[C@@H](Cc1ccc(O)cc1)C(=O)N[C@@H](CO)C(=O)N[C@H](C(=O)N[C@@](C)(CC(C)C)C(=O)N[C@@H](CC(C)C)C(=O)N[C@@H](CC(=O)O)C(=O)N[C@@H](CCCN)C(=O)N[C@@H](CCCCNC(=O)COCCOCCNC(=O)COCCOCCNC(=O)CC[C@H](NC(=O)CCCCCCCCCCCCCCCCCCC(=O)O)C(=O)O)C(=O)N[C@@H](Cc1c[nH]cn1)C(=O)N[C@@H](CCC(N)=O)C(=O)NC(C)(C)C(=O)N[C@@H](CC(=O)O)C(=O)N[C@@H](Cc1ccccc1)C(=O)N[C@H](C(=O)N[C@@H](CCC(=O)O)C(=O)N[C@@H](Cc1ccncc1)C(=O)N[C@@H](CC(C)C)C(=O)N[C@@H](CC(C)C)C(=O)N[C@@H](CCC(=O)O)C(=O)N[C@@H](CCC(N)=O)C(=O)NCC(=O)N1CCC[C@H]1C(=O)N[C@@H](CO)C(=O)N[C@@H](CO)C(=O)NCC(=O)N[C@@H](C)C(=O)N1CCC[C@H]1C(=O)N1CCC[C@H]1C(=O)N1CCC[C@H]1C(=O)N[C@@H](CO)C(N)=O)C(C)C)[C@@H](C)CC [Example 81] (H-Y[Aib]EGTFISDYSI[αMeL]LD[Orn]K([AEEA-AEEA-γGlu-C20 diacid])HQ[Aib]DFVE[4Pal]LLEQGPSSGAPPPS-NH2) | > 5000 | > 5000 | 0.0282
CC[C@H](C)[C@H](NC(=O)[C@H](CO)NC(=O)[C@H](Cc1ccc(O)cc1)NC(=O)[C@H](CC(=O)O)NC(=O)[C@H](CO)NC(=O)[C@@H](NC(=O)[C@H](Cc1ccccc1)NC(=O)[C@@H](NC(=O)CNC(=O)[C@H](CCC(=O)O)NC(=O)C(C)(C)NC(=O)[C@@H](N)Cc1ccc(O)cc1)[C@@H](C)O)[C@@H](C)CC)C(=O)N[C@@H](CC(C)C)C(=O)N[C@@H](CC(C)C)C(=O)N[C@@H](CC(=O)O)C(=O)N[C@@H](CCCCN)C(=O)N[C@@H](CCCCNC(=O)COCCOCCNC(=O)COCCOCCNC(=O)CC[C@H](NC(=O)CCCCCCCCCCCCCCCCC(=O)O)C(=O)O)C(=O)N[C@@H](Cc1c[nH]cn1)C(=O)N[C@@H](CCC(N)=O)C(=O)NC(C)(C)C(=O)N[C@@H](CC(=O)O)C(=O)N[C@@H](Cc1ccccc1)C(=O)N[C@H](C(=O)N[C@@H](CC(N)=O)C(=O)N[C@@H](Cc1ccc(O)cc1)C(=O)N[C@@H](CC(C)C)C(=O)N[C@@H](CC(C)C)C(=O)N[C@@H](C)C(=O)N[C@@H](C)C(=O)NCC(=O)N1CCC[C@H]1C(=O)N[C@@H](CO)C(=O)N[C@@H](CO)C(=O)NCC(=O)N[C@@H](C)C(=O)N1CCC[C@H]1C(=O)N1CCC[C@H]1C(=O)N1CCC[C@H]1C(=O)N[C@@H](CO)C(N)=O)C(C)C [Example 31] (H-Y[Aib]EGTFISDYSILLDKK([AEEA-AEEA-γGlu-C18 diacid])HQ[Aib]DFVNYLLAAGPSSGAPPPS-NH2) | > 5000 | 1750 | 0.0148
CC[C@H](C)[C@H](NC(=O)[C@H](CO)NC(=O)[C@H](Cc1ccc(O)cc1)NC(=O)[C@H](CC(=O)O)NC(=O)[C@H](CO)NC(=O)[C@@H](NC(=O)[C@H](Cc1ccccc1)NC(=O)[C@@H](NC(=O)CNC(=O)[C@H](CCC(=O)O)NC(=O)C(C)(C)NC(=O)[C@@H](N)Cc1ccc(O)cc1)[C@@H](C)O)[C@@H](C)CC)C(=O)N[C@@H](CC(C)C)C(=O)N[C@@H](CC(C)C)C(=O)N[C@@H](CC(=O)O)C(=O)N[C@@H](CCCCN)C(=O)N[C@@H](CCCCNC(=O)COCCOCCNC(=O)COCCOCCNC(=O)CC[C@H](NC(=O)CCCCCCCCCCCCCCCCCCC(=O)O)C(=O)O)C(=O)N[C@@H](C)C(=O)N[C@@H](CCC(N)=O)C(=O)NC(C)(C)C(=O)N[C@@H](CC(=O)O)C(=O)N[C@@H](Cc1ccccc1)C(=O)N[C@H](C(=O)N[C@@H](CC(N)=O)C(=O)N[C@@H](Cc1c[nH]c2ccccc12)C(=O)N[C@@H](CC(C)C)C(=O)N[C@@H](CC(C)C)C(=O)N[C@@H](C)C(=O)N[C@@H](CCC(N)=O)C(=O)NCC(=O)N1CCC[C@H]1C(=O)N[C@@H](CO)C(=O)N[C@@H](CO)C(=O)NCC(=O)N[C@@H](C)C(=O)N1CCC[C@H]1C(=O)N1CCC[C@H]1C(=O)N1CCC[C@H]1C(=O)N[C@@H](CO)C(N)=O)C(C)C [Example 8] (H-Y[Aib]EGTFISDYSILLDKK([AEEA-AEEA-γGlu-C20 diacid])AQ[Aib]DFVNWLLAQGPSSGAPPPS-NH2) | > 5000 | 295 | 0.0268
